Reference: patent publication US7015022B2, “Mammalian catalase-dependent oxidation processes and methods for stimulating oxidative activities” (University of Medicine & Dentistry of New Jersey, priority 2002, dated 2006)
“Also recorded” adds a separate entry of the source.

Key:
[1] = biological target: T1, mammalian catalase (Bos taurus, UniProt P00432); assay: Competition with AMPLEX-RED: inhibition of the AMPLEX-RED catalase oxidase reaction; type: biochemical, bovine; conditions: for kind of inhibition of the AMPLEX-RED oxidase reaction (kinetic analysis): competitive or noncompetitive; for inhibition of the oxidation of AMPLEX-RED to resorufin by catalase: concentrations ranging from 0.005 mM to 0.1 mm or greater; for Ki: calculated from kinetic analysis, catalase 1 mg/ml, read-out: Ki for inhibition of the AMPLEX-RED catalase oxidation reaction; for inhibition of the AMPLEX-RED catalase oxidase activity: catalase 1 mg/ml in reaction buffer, no concentration given
T1 construct: purified catalases obtained from a variety of sources including enzyme from mouse and bovine liver; purchased Sigma Chemical Co., St. Louis, Mo; host or cells: liver tissue (mouse and bovine named)
T1 sequence (P00432 2-527 limits assumed): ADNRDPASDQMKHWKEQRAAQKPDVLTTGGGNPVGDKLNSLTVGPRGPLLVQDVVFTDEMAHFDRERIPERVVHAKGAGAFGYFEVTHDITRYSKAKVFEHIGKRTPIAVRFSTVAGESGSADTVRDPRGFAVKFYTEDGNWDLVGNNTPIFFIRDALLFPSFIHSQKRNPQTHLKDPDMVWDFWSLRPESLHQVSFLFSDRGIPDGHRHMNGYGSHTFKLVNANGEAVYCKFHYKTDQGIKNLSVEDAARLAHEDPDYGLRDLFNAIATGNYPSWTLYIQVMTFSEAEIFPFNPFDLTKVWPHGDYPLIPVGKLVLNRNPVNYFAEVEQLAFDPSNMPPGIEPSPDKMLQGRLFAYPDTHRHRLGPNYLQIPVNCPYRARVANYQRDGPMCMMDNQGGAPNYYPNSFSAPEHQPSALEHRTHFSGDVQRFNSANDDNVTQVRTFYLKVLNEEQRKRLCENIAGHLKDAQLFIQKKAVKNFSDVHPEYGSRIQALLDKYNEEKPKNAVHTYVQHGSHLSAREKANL
Method: Catalases were purchased from Sigma Chemical Co., St. Louis, Mo. Reactions were carried out in buffer consisting of 50 mM phosphate buffer, pH 7.4 and 1.0 mg/ml of the catalase at room temperature (22° C.) in a reaction volume of 0.1 ml. […] Standard reaction mixtures contain 20 nmoles of the substrate. Detection of the fluorescent product resorufin was measured using an HTS 7000 Plus Bio Assay Reader (Perkin Elmer, Beaconsfield, Buckinghamsire, UK) using a 540 nm excitation filter and a 595 nm emission filter.

[2] = biological target: T2, catalase (Bos taurus, UniProt P00432); assay: Accelerating catalase oxidation of DCFH-DA with UV light; type: biochemical; conditions: DCFH-DA 5 μM, catalase 1 mg/ml
T2 sequence (P00432 2-527 limits assumed): T1 sequence (P00432 2-527 limits assumed)
Method: The present invention also relates to methods for accelerating the oxidation of substrates by catalase by exposure to ultraviolet light. For purposes of the present invention, by “accelerate” or “accelerating” it is meant that the rate at which catalase oxidizes a substrate is increased when exposed to ultraviolet light as compared the rate of oxidation of the substrate by catalase in the absence of ultraviolet light. In this method, a substrate is added to mammalian catalase and the mixture is then treated with low doses of ultraviolet light to accelerate oxidation of the substrate. In a preferred embodiment of this method, the low dose of ultraviolet radiation ranges between 2.5 and 25 mJ/cm^2 at a wavelength of UVB light that is between 290 and 320 nm. […] For example, the substrate DCFH-DA was added to a reaction mixture containing catalase in sodium phosphate buffer. The samples were then exposed to increasing doses of ultraviolet light (UVB, 290–320 nm).
Samples were then exposed to increasing doses of ultraviolet light (UVB, 290–320 nm) emitted from a bank of two FS20 UVB light bulbs (Sylvania).

[3] = biological target: T1, mammalian catalase; assay: Oxidation of substrates by catalase oxidase activity (absorbance or fluorescence); type: biochemical, bovine; conditions: in the absence of hydrogen peroxide
Method: The oxidation of multiple substrates depicted in Table 1 with time was measured using an HTS 7000 Plus Bio Assay Reader using standard catalase reaction mixes (0.5 mg/ml catalase in 50 mM phosphate buffer, pH 7.4). Pyrogallol oxidation (1 mM) was measured by the increase in absorbance at 430 nm. Oxidation of ABTS (1 mM) was measured as the […] in absorbance at 430 nm. Oxidation of catechol (1 mM) was measured as the increase in absorbance at 420 nm. Oxidation of DCFH (5 μM) by catalase was measured as the increase in fluorescence over time with a 485 nm excitation filter and a 520 nm emission filter.

kind of inhibition of the AMPLEX-RED oxidase reaction (kinetic analysis) [1] | inhibition of the oxidation of AMPLEX-RED to resorufin by catalase [1] | Compound | other results
competitive inhibitors | inhibition | Oc1cccc(O)c1O [pyrogallol, 1,2,3-trihydroxybenzene(pyrogallol)] | Ki [1]: 1680 µM
competitive inhibitors | inhibition | CCn1/c(=N\N=c2\sc3cc(S(=O)(=O)O)ccc3n2CC)sc2cc(S(=O)(=O)O)ccc21.N.N [ABTS, 2,2′-azino-bis[3-ethylbenzthiazoline-6-sulfonic acid]] | –
competitive inhibitors | inhibition | CC(=O)Oc1cc2c(cc1Cl)C(c1ccccc1C(=O)O)c1cc(Cl)c(OC(C)=O)cc1O2 [DCFH-DA, 2′,7′-dichlorodihydrofluoresceindiacetate] | Ki [1]: 31.6 µM; oxidation of DCFH-DA by catalase (increase in fluorescence) ([2]; absence of UVB light): Oxidation of DCFH-DA is observed; also recorded: Relatively low levels of oxidation; oxidation of DCFH-DA by catalase (increase in fluorescence) ([2]; with UVB light 290–320 nm, increasing doses): marked enhancement
competitive inhibitors | inhibition | Oc1ccccc1O [DHB, 1,2-dihydroxybenzene(catechol)] | –
competitive inhibitors | inhibition | COc1cc(/C=C/C(=O)O)ccc1O [HMCA, 4-hydroxy-3-methoxycinnamicacid (ferulic acid)] | substrate for the catalase oxidase reaction [3]: substrate

Second part, the compound before the results:

Compound | kind of inhibition of the AMPLEX-RED oxidase reaction (kinetic analysis) [1] | inhibition of the oxidation of AMPLEX-RED to resorufin by catalase [1] | other results
COc1cc(-c2ccc(N)c(OC)c2)ccc1N [DMB, 3,3′-dimethoxybenzidine] | competitive inhibitors | inhibition | –
Nc1nc[nH]n1 [3-amino-1,2,4-triazole] | – | – | inhibition of the AMPLEX-RED catalase oxidase activity [1]: inhibits
O=C(OC1Cc2c(O)cc(O)cc2OC1c1cc(O)c(O)c(O)c1)c1cc(O)c(O)c(O)c1 (single isomer, unassigned; (-)) [EGCG, (−)-epigallocatechin-3-gallate] | – | – | substrate for the catalase oxidase reaction [3]: substrate
Nc1ccc(-c2ccc(N)c(N)c2)cc1N [DAB, 3,3′-diaminobenzidine] | competitive inhibitors | inhibition | inhibition of the AMPLEX-RED catalase oxidase activity [1]: inhibitors
Cc1c(N(C)C)c(=O)n(-c2ccccc2)n1C [4-dimethylaminoantipyrine] | non-competitive inhibitors | inhibition | kind of inhibition of the AMPLEX-RED oxidase reaction (kinetic analysis) ([1]; listed as aminopyrene): noncompetitive inhibitor
5-amino-2,3-dihydro-1,4-phthalazine-dione (luminol) | competitive inhibitor | – | –
